“Also recorded” adds a separate entry of the source.
Experiments:
[1] = Dynamic Vapor Sorption (DVS) hygroscopicity; assay type: physicochemical; settings: for hygroscopicity classification: DVS; for DVS (matrix of results from solid form characterization): summary grade Good/Moderate/Poor
Procedure: Dynamic Vapor Sorption (DVS) was measured via a SMS (Surface Measurement Systems) DVS Intrinsic. The relative humidity at 25° C. were calibrated against the deliquescence point of LiCl, Mg(NO3)2 and KCl.

[2] = Physical and chemical stability on storage (LC-MS and XRPD); assay type: physicochemical; settings: for decomposition or solid form change in stability assay / Stability (matrix of results from solid form characterization): 1 week stability assay; for Solid Form after storage (XRPD) / Stability: 25/60% RH; 40 C./75% RH; 1 week / Form change?: 1 week; for Stability: 25/60% RH; 40 C./75% RH; 1 week / Form change?: BRD4780 salt solid form, 25/60% RH and 40 C./75% RH; for Stability: 25/60% RH; 40 C./75% RH; 1 week: impurities estimated by LCMS by observation of the TIC; for Form change?: solid form change (XRPD); for Stability (matrix of results from solid form characterization): summary grade Good/Moderate/Poor
Procedure: To compare the physical/chemical stability of the salt candidates, approximate 10 mg of each solid sample was added to a 5-mL glass vial covered with Parafilm® with several pin-holes on it, and then stored under 25° C./60% RH and 40° C./75% RH. After one week storage, solids were taken out for LC-MS and XRPD test to evaluate physical and chemical stability.

[3] = TGA and DSC thermal characterization of salts; assay type: physicochemical; settings: summary grade Good/Moderate/Poor
Procedure: TGA data were collected using a TA Discovery5500/Q5000 TGA from TA Instruments. DSC was performed using a TA Discovery2500/Q2000 DSC from TA Instruments.

[4] = physchem; settings: thermodynamic from solid
[5] = Equilibrium solubility in water and bio-relevant media (SGF, FaSSIF, FeSSIF); settings: for solubility: thermodynamic from solid; for Solubility (matrix of results from solid form characterization): summary grade Good/Moderate/Poor
[6] = water, H2O solubility (mM; salt)

Row | SMILES | DVS (% H2O uptake at 25 C./80% RH) [1] [%] | DVS (% H2O uptake at 25 C./95% RH) [1] [%] | hygroscopicity classification [1] | DVS (matrix of results from solid form characterization) [1] | decomposition or solid form change in stability assay [2] | Solid Form after storage (XRPD) ([2]; 25° C./60% RH) | Solid Form after storage (XRPD) ([2]; 40° C./75% RH) | Stability: 25/60% RH; 40 C./75% RH; 1 week [2] | Form change? [2] | Stability (matrix of results from solid form characterization) [2] | TGA/DSC (matrix of results from solid form characterization) [3] | pH ([5]; final solution in FaSSIF) | pH ([5]; final solution in FeSSIF) | pH ([5]; final solution in H2O) | pH ([5]; final solution in SGF) | Solubility (matrix of results from solid form characterization) [5] | further results
1 | CC(C)[C@@H]1[C@H]2CC[C@H](C2)[C@H]1N.O=C(O)CCC(=O)O [Succinate Type A] | 0.08 | 0.67 | not hygroscopic | Good | new peaks observed | Succinate Type A + peaks | Succinate Type A | No significant impurities | New Peaks | Moderate | Good | 4.5 | 4.6 | 4.5 | 4.4 |  | Solid Form after storage (XRPD) ([2]; 25° C./60% RH, listed as succinate Type A): new peaks were observed; solubility ([4]; pH 1.8, simulated gastric fluid, SGF solubility): > 28 mg/mL; solubility ([4]; pH 6.5, fassif, FaSSIF solubility): > 28 mg/mL; solubility [4, 6]: > 103 mM; solubility ([4]; water, H2O solubility (mg/mL; salt)): > 28 mg/mL
2 | CC(C)[C@@H]1[C@H]2CC[C@H](C2)[C@H]1N.O=C(O)/C=C/C(=O)O [Fumarate Type A] | 0.15 | 0.16 | not hygroscopic | Good | did not display decomposition or solid form change | Fumarate Type A | Fumarate Type A | No significant impurities | No change | Good | Good | 3.5 | 4.1 | 3.4 | 3.1 | Moderate | XRPD after stirring in medium ([5]; 24 hours in FeSSIF): Additional peaks in the XRPD spectra were observed; solubility ([5]; fasted state simulated intestinal fluid (FaSSIF), pH 6.5, fassif, FaSSIF solubility, Fasted State Simulated Intestinal Fluid (pH 6.5)): 12.4 mg/mL; solubility ([5]; fed state simulated intestinal fluid (FeSSIF), pH 5, fessif, FeSSIF solubility, Fed State Simulated Intestinal Fluid (pH 5.0)): 17.1 mg/mL; solubility ([5]; simulated gastric fluid (SGF), pH 1.8, simulated gastric fluid, SGF solubility, Simulated gastric fluid (pH 1.8)): 11.9 mg/mL; solubility [5, 6]: 44.6 mM; solubility ([5]; water, H2O solubility (mg/mL; salt), HCl salt tested at 100 mg/mL, other salts at 50 mg/mL): 12.3 mg/mL
3 | CC(C)[C@@H]1[C@H]2CC[C@H](C2)[C@H]1N [L-malate Type C] | 0.18 | 0.30 | not hygroscopic | Good | form change observed | L-malate Type C | partly converted to L-malate Type B; also recorded: L-malate Type B + C | No significant impurities | Type B observed | Poor | Poor | 6.4 | 5.2 | 7.1 | 5.3 | Good | FaSSIF solubility ([5]; Fasted State Simulated Intestinal Fluid (pH 6.5)): >30 mg/mL; FeSSIF solubility ([5]; Fed State Simulated Intestinal Fluid (pH 5.0)): >32 mg/mL; SGF solubility ([5]; Simulated gastric fluid (pH 1.8)): >33 mg/mL; H2O solubility (mM; salt) ([5]; water): >136.17 mM; H2O solubility (mg/mL; salt) ([5]; water, HCl salt tested at 100 mg/mL, other salts at 50 mg/mL): >39 mg/mL

From US20240116850A1, “COMPOSITIONS AND METHODS RELATED TO BICYCLO[2.2.1] HEPTANAMINE-CONTAINING COMPOUNDS” (The Broad Institute, Inc., priority 2020, published 2024)
